Structures can show the parent of a compound that is named as a salt.
Experiments:
[1] = test system: NAADP-evoked Ca^2+ release; assay type: biochemical, Strongylocentrotus purpuratus; conditions: for IC50: read-out: IC50 for inhibition of NAADP-evoked Ca2+ release; for 2° Screen (sea urchin) Ca^2+ release log(IC50): printed as log(IC50), negative values, molar implied, NAADP 70 nM
[2] = test system: specific ^32P-NAADP binding in sea urchin egg homogenates; test: 32P-NAADP radioligand binding in sea urchin egg homogenate; design: species or system Strongylocentrotus purpuratus; conditions: drug 30 μM, specific 32P-NAADP binding relative to vehicle
[3] = test system: NAADP-evoked Ca^2+ release; test: Primary screen of NAADP-evoked Ca2+ release in sea urchin egg homogenate; assay type: biochemical, Strongylocentrotus purpuratus; conditions: for 1° Screen (sea urchin) Ca^2+ release (% NAADP): peak NAADP-evoked Ca2+ release as % of control NAADP response: compound 25 μM, 6 min preincubation, NAADP 167 nM; for Effect on NAADP-evoked Ca2+ signal in primary screen (in words): 25 μM
[4] = test system: lysosomal labelling (LysoTracker Red), U2OS cells; test: Counterscreen: LysoTracker Red; assay type: cell-based, human; conditions: for Counterscreen (human cells) LTR signal (% control): drug 30 μM, minimum LTR F/F0 before GPN; for activity at 30 µM: Homo sapiens, read-out: Counterscreen (human cells) LTR signal (% control)
[5] = test system: lysosomal Ca^2+ content, U2OS cells; test: Counterscreen: GPN-evoked lysosomal Ca2+ release; assay type: cell-based, human; conditions: for Effect on GPN-mobilizable Ca2+ and LysoTracker (LTR) staining (in words) / Counterscreen (human cells) Ca^2+ release (% GPN): drug 30 μM; for Counterscreen (human cells) Ca^2+ release (% GPN): GPN 300 μM, peak fluo-4 F/F0; for activity at 30 µM: Homo sapiens, read-out: Counterscreen (human cells) Ca^2+ release (% GPN)
[6] = test system: cADPR-evoked Ca^2+ release; assay type: biochemical, Strongylocentrotus purpuratus
[7] = test system: IP3-evoked Ca^2+ release; assay type: biochemical, Strongylocentrotus purpuratus
[8] = test system: NAADP-evoked Ca^2+ signals; conditions: cited from earlier work

| Compound | 2° Screen (sea urchin) Ca^2+ release log(IC50) [1] | 2° Screen (sea urchin) NAADP binding (% inhibition) [2] [%] | 1° Screen (sea urchin) Ca^2+ release (% NAADP): peak NAADP-evoked Ca2+ release as % of control NAADP response [3] [%] | activity at 30 µM [4] [%] | activity at 30 µM [5] [%] | also measured |
| --- | --- | --- | --- | --- | --- | --- |
| COc1ccc([C@H]2N[C@H](C(=O)O)Cc3c2[nH]c2ccccc32)cc1CN1CCN(c2ccccc2F)CC1 (relative stereo) [trans-ned-19, trans-Ned-19] | – | – | – | – | – | IC50 [1]: 156 ± 3 µM |
| CCS(=O)(=O)Nc1cccc(C(=C2CCCCC2)c2cnc[nH]2)c1 [A-315456] | −4.44 ± 0.01 | 8.4 ± 1.2 | 13.0 ± 5.0 | – | – | Counterscreen (human cells) LTR signal (% control) [4]: 95.2 ± 4%; Effect on GPN-mobilizable Ca2+ and LysoTracker (LTR) staining (in words) [5]: no effect; Counterscreen (human cells) Ca^2+ release (% GPN) [5]: 97.1 ± 3% |
| CN1CCC[C@@H]1CCO[C@](C)(c1ccccc1)c1ccc(Cl)cc1 [Clemastine fumarate, clemastine fumarate] | – | – | – | 70.9 ± 15 | 69.5 ± 13 | – |
| COc1cc(C(=O)OCCCN2CCCN(CCCOC(=O)c3cc(OC)c(OC)c(OC)c3)CC2)cc(OC)c1OC [Dilazep hydrochloride, dilazep hydrochloride] | −5.03 ± 0.11 | −10.9 ± 8.1 | 16.0 ± 3.0 | 69.6 ± 9 | 65.1 ± 5 | – |
| COc1ccc2cc1Oc1ccc(cc1)C[C@H]1c3cc(c(OC)cc3CCN1C)Oc1c(O)c(OC)cc3c1[C@H](C2)N(C)CC3 [Fangchinoline] | – | – | – | – | – | Peak amplitude of NAADP-evoked Ca2+ release, % of control response [1]: 47 ± 2%; Effect on size of cADPR-evoked Ca2+ transients (in words) [6]: lesser effects; Effect on size of IP3-evoked Ca2+ transients (in words) [7]: lesser effects |
| OCCN1CCN(CCCN2c3ccccc3Sc3ccc(C(F)(F)F)cc32)CC1 [Fluphenazine dihydrochloride, fluphenazine dihydrochloride] | – | – | – | 69.8 ± 10 | 67.6 ± 14 | – |
| Cl.Cl.c1ccc(CCCN2CCN(CCOC(c3ccccc3)c3ccccc3)CC2)cc1 [GBR-12935 dihydrochloride] | −4.90 ± 0.13 | 3.4 ± 3.3 | 10.7 ± 7.0 | – | – | Counterscreen (human cells) LTR signal (% control) [4]: 67.5 ± 11%; Counterscreen (human cells) Ca^2+ release (% GPN) [5]: 61.1 ± 15% |
| Cl.Fc1ccc(C(OCCCc2c[nH]cn2)c2ccc(F)cc2)cc1 [IPFME, 3-(1H-Imidazol-4-yl)propyl di(p-fluorophenyl)methyl ether hydrochloride] | −5.22 ± 0.08 | 2.9 ± 2.1 | 13.7 ± 11 | 56.9 ± 8 | 51.3 ± 18 | – |
| CC1(C)C(=O)N(CCN2CCC(C(=O)c3ccc(F)cc3)CC2)c2ccccc21.Cl [LY-310,762 hydrochloride] | −4.75 ± 0.05 | −2.8 ± 3.8 | 16.3 ± 8.7 | – | – | Counterscreen (human cells) LTR signal (% control) [4]: 90.2 ± 8%; Counterscreen (human cells) Ca^2+ release (% GPN) [5]: 108.1 ± 11% |
| CCN(CC)CC#CCOC(=O)C(O)(c1ccccc1)C1CCCCC1 (stereo not shown) [Oxybutynin Chloride, oxybutynin chloride] | – | – | – | 59.2 ± 9 | 62.1 ± 4 | – |
| CCCCCCCCCC(=O)NC(CN1CCOCC1)C(O)c1ccccc1.Cl (stereo not shown) [PDMP, PDMP hydrochloride] | −4.80 ± 0.05 | 6.0 ± 0.5 | 18.3 ± 17 | – | – | Counterscreen (human cells) LTR signal (% control) [4]: 91.6 ± 13%; Effect on GPN-mobilizable Ca2+ and LysoTracker (LTR) staining (in words) [5]: no effect; Counterscreen (human cells) Ca^2+ release (% GPN) [5]: 91.4 ± 2% |
| Cc1nc(N=Nc2ccc(S(=O)(=O)[O-])cc2S(=O)(=O)[O-])c(COP(=O)([O-])[O-])c(C=O)c1O.[Na+].[Na+].[Na+].[Na+] [PPADS, PPADS tetrasodium salt] | −5.27 ± 0.01 | 84.8 ± 1.6 | – | – | – | IC50 [1]: 5.4 ± 0.2 µM; Counterscreen (human cells) LTR signal (% control) [4]: 92.1 ± 7%; Counterscreen (human cells) Ca^2+ release (% GPN) [5]: 91.3 ± 16% |
| Cc1nc(N=Nc2cc(S(=O)(=O)O)c3cc([N+](=O)[O-])cc(S(=O)(=O)O)c3c2)c(COP(=O)(O)O)c(C=O)c1O [PPNDS] | – | – | 22 ± 4 | – | – | – |
| CN1CCN(CCCN2c3ccccc3Sc3ccc(Cl)cc32)CC1 [Prochlorperazine dimaleate, prochlorperazine dimaleate salt] | – | – | – | 24.3 ± 14 | 20.2 ± 17 | – |
| CC(=O)SCC(Cc1ccccc1)C(=O)NCC(=O)OCc1ccccc1 (stereo not shown) [Racecadotril, racecadotril] | −5.80 ± 0.03 | −8.3 ± 0.2 | 11.5 ± 6.0 | 92.8 ± 3 | 110 ± 4 | IC50 [1]: 1.6 ± 0.1 µM; Effect on GPN-mobilizable Ca2+ and LysoTracker (LTR) staining (in words) [5]: no effect |
| COc1ccc(CCCOC(Cn2ccnc2)c2ccc(OC)cc2)cc1 (stereo not shown) [SKF 96,365, SKF 96365 hydrochloride] | −5.29 ± 0.06 | −5.3 ± 5.7 | 6.3 ± 4.5 | 98.5 ± 5 | 98.1 ± 6 | Effect on GPN-mobilizable Ca2+ and LysoTracker (LTR) staining (in words) [5]: no effect |
| OCc1cc(C(O)CNCCCCCCOCCCCc2ccccc2)ccc1O (stereo not shown) [Salmeterol xinafolate, salmeterol xinafoate] | −4.94 ± 0.04 | −2.3 ± 13.6 | 18.7 ± 12 | 97.3 ± 7 | 97.4 ± 5 | – |
| CCN(CC)CCCCCCCCOC(=O)c1cc(OC)c(OC)c(OC)c1.Cl [TMB-8 hydrochloride] | −5.12 ± 0.06 | −16.6 ± 10.3 | 18.3 ± 3.2 | – | – | Counterscreen (human cells) LTR signal (% control) [4]: 71.8 ± 8%; Counterscreen (human cells) Ca^2+ release (% GPN) [5]: 68.8 ± 5% |
| CSc1ccc2c(c1)N(CCC1CCCCN1C)c1ccccc1S2 (stereo not shown) [Thioridazine hydrochloride, thioridazine hydrochloride] | – | – | – | 26.2 ± 18 | 20.5 ± 12 | – |
| CN1CCN(CCCN2c3ccccc3Sc3ccc(C(F)(F)F)cc32)CC1 [Trifluoperazine dihydrochloride, trifluoperazine dihydrochloride] | −5.13 ± 0.10 | −13.7 ± 13.7 | 19.7 ± 15 | 15.2 ± 9 | 5.8 ± 11 | – |
| CO/C1=C\C(C)=C\[C@@H](C)[C@@H](O)[C@@H](C)C/C(C)=C/C=C/[C@H](OC)[C@@H]([C@@H](C)[C@@H](O)[C@H](C)[C@@]2(O)C[C@@H](O)[C@H](C)[C@@H](C(C)C)O2)OC1=O [bafilomycin, bafilomycin A1] | – | – | – | – | – | Effect on GPN-mobilizable Ca2+ and LysoTracker (LTR) staining (in words) [5]: penetrant effects |
| COc1ccc([C@@H]2Sc3ccccc3N(CCN(C)C)C(=O)[C@@H]2OC(C)=O)cc1 [diltiazem] | – | – | – | – | – | Concentration acting as TPC pore blocker [8]: < 10 u M |
| O=C1C[C@@H](c2ccc(O)cc2)Oc2cc(O)cc(O)c21 [naringenin] | – | – | – | – | – | IC50 [8]: ~180 µM |
| COC(=O)C1=C(C)NC(C)=C(C(=O)OC)C1c1ccccc1[N+](=O)[O-] [nifedipine] | – | – | – | – | – | Concentration acting as TPC pore blocker [8]: < 10 u M |
| O=C1NC(=O)C(c2ccccc2)(c2ccccc2)N1 [phenytoin] | – | – | – | – | – | Effect on NAADP-evoked Ca2+ signal in primary screen (in words) [3]: potentiation |
| C/C=C(/C)C(=O)O[C@H]1C(C)=C2[C@H]([C@@H]1OC(=O)CCCCCCC)[C@@](C)(OC(C)=O)C[C@H](OC(=O)CCC)[C@@]1(O)[C@H]2OC(=O)[C@@]1(C)O [thapsigargin] | – | – | – | – | – | Effect on NAADP-evoked Ca2+ signal in primary screen (in words) [3]: did not abrogate NAADP responsiveness |
| ST-148 | −4.80 ± 0.08 | 0.2 ± 4.3 | 16.7 ± 3.5 | – | – | Counterscreen (human cells) LTR signal (% control) [4]: 69.8 ± 13%; Counterscreen (human cells) Ca^2+ release (% GPN) [5]: 66.6 ± 5% |
